Laboratory results as given in ChEMBL document CHEMBL1147293, “Immunosuppressive compounds from a deep water marine sponge, Agelas flabelliformis” (J Nat Prod, 1989).

Experiments:
[1] = Cytotoxicity against mouse splenocytes assessed as cell viability at 1.0 ug/ml after 88 hrs by MTT assay; assay type: cell-based, Splenocyte; details: read-out: Activity
[2] = tested on: Splenocyte; assay: Immunosuppressive activity against mouse splenocytes assessed as [3H]thymidine incorporation at 2.0 ug/ml after 88 hrs by liquid scintillation counting; assay type: functional
[3] = Cytotoxicity against mouse splenocytes assessed as cell viability at 7.8 ug/ml after 88 hrs by MTT assay; assay type: cell-based, Splenocyte; details: read-out: Activity
[4] = tested on: Splenocyte; assay: Immunosuppressive activity against concanavalin A-activated mouse splenocytes assessed as [3H]thymidine incorporation at 250 ug/ml after 72 hrs by liquid scintillation counting; assay type: functional
[5] = tested on: Splenocyte; assay: Immunosuppressive activity against mouse splenocytes assessed as [3H]thymidine incorporation at 250 ug/ml after 88 hrs by liquid scintillation counting; assay type: functional
[6] = tested on: Splenocyte; assay: Immunosuppressive activity against mouse splenocytes assessed as [3H]thymidine incorporation at 62.5 ug/ml after 88 hrs by liquid scintillation counting; assay type: functional
[7] = tested on: Splenocyte; assay: Immunosuppressive activity against concanavalin A-activated mouse splenocytes assessed as [3H]thymidine incorporation at 2.0 ug/ml after 72 hrs by liquid scintillation counting; assay type: functional
[8] = Cytotoxicity against mouse splenocytes assessed as cell viability at 15.6 ug/ml after 88 hrs by MTT assay; assay type: cell-based, Splenocyte; details: read-out: Activity
[9] = tested on: Splenocyte; assay: Immunosuppressive activity against concanavalin A-activated mouse splenocytes assessed as [3H]thymidine incorporation at 31.3 ug/ml after 72 hrs by liquid scintillation counting; assay type: functional
[10] = tested on: Splenocyte; assay: Immunosuppressive activity against concanavalin A-activated mouse splenocytes assessed as [3H]thymidine incorporation at 0.3 ug/ml after 72 hrs by liquid scintillation counting; assay type: functional
[11] = tested on: Splenocyte; assay: Immunosuppressive activity against mouse splenocytes assessed as [3H]thymidine incorporation at 3.9 ug/ml after 88 hrs by liquid scintillation counting; assay type: functional
[12] = tested on: Splenocyte; assay: Immunosuppressive activity against mouse splenocytes assessed as [3H]thymidine incorporation at 31.3 ug/ml after 88 hrs by liquid scintillation counting; assay type: functional
[13] = tested on: Splenocyte; assay: Immunosuppressive activity against concanavalin A-activated mouse splenocytes assessed as [3H]thymidine incorporation at 3.9 ug/ml after 72 hrs by liquid scintillation counting; assay type: functional
[14] = tested on: Splenocyte; assay: Immunosuppressive activity against concanavalin A-activated mouse splenocytes assessed as [3H]thymidine incorporation at 500 ug/ml after 72 hrs by liquid scintillation counting; assay type: functional
[15] = Cytotoxicity against mouse splenocytes assessed as cell viability at 0.5 ug/ml after 88 hrs by MTT assay; assay type: cell-based, Splenocyte; details: read-out: Activity
[16] = tested on: Splenocyte; assay: Immunosuppressive activity against concanavalin A-activated mouse splenocytes assessed as [3H]thymidine incorporation at 7.8 ug/ml after 72 hrs by liquid scintillation counting; assay type: functional
[17] = tested on: Splenocyte; assay: Immunosuppressive activity against concanavalin A-activated mouse splenocytes assessed as [3H]thymidine incorporation at 1.0 ug/ml after 72 hrs by liquid scintillation counting; assay type: functional
[18] = tested on: Splenocyte; assay: Immunosuppressive activity against mouse splenocytes assessed as [3H]thymidine incorporation at 1.0 ug/ml after 88 hrs by liquid scintillation counting; assay type: functional
[19] = tested on: Splenocyte; assay: Immunosuppressive activity against mouse splenocytes assessed as [3H]thymidine incorporation at 7.8 ug/ml after 88 hrs by liquid scintillation counting; assay type: functional
[20] = tested on: Splenocyte; assay: Immunosuppressive activity against concanavalin A-activated mouse splenocytes assessed as [3H]thymidine incorporation at 62.5 ug/ml after 72 hrs by liquid scintillation counting; assay type: functional
[21] = tested on: Splenocyte; assay: Immunosuppressive activity against concanavalin A-activated mouse splenocytes assessed as [3H]thymidine incorporation at 125 ug/ml after 72 hrs by liquid scintillation counting; assay type: functional
[22] = tested on: Splenocyte; assay: Immunosuppressive activity against mouse splenocytes assessed as [3H]thymidine incorporation at 0.5 ug/ml after 88 hrs by liquid scintillation counting; assay type: functional
[23] = tested on: Splenocyte; assay: Immunosuppressive activity against concanavalin A-activated mouse splenocytes assessed as [3H]thymidine incorporation at 15.6 ug/ml after 72 hrs by liquid scintillation counting; assay type: functional
[24] = Cytotoxicity against mouse splenocytes assessed as cell viability at 250 ug/ml after 88 hrs by MTT assay; assay type: cell-based, Splenocyte; details: read-out: Activity
[25] = tested on: Splenocyte; assay: Immunosuppressive activity against mouse splenocytes assessed as [3H]thymidine incorporation at 125 ug/ml after 88 hrs by liquid scintillation counting; assay type: functional
[26] = Cytotoxicity against mouse splenocytes assessed as cell viability at 500 ug/ml after 88 hrs by MTT assay; assay type: cell-based, Splenocyte; details: read-out: Activity
[27] = Cytotoxicity against mouse splenocytes assessed as cell viability at 31.3 ug/ml after 88 hrs by MTT assay; assay type: cell-based, Splenocyte; details: read-out: Activity
[28] = Cytotoxicity against mouse splenocytes assessed as cell viability at 62.5 ug/ml after 88 hrs by MTT assay; assay type: cell-based, Splenocyte; details: read-out: Activity
[29] = tested on: Splenocyte; assay: Immunosuppressive activity against concanavalin A-activated mouse splenocytes assessed as [3H]thymidine incorporation at 0.5 ug/ml after 72 hrs by liquid scintillation counting; assay type: functional
[30] = Cytotoxicity against mouse splenocytes assessed as cell viability at 125 ug/ml after 88 hrs by MTT assay; assay type: cell-based, Splenocyte; details: read-out: Activity
[31] = tested on: Splenocyte; assay: Immunosuppressive activity against mouse splenocytes assessed as [3H]thymidine incorporation at 500 ug/ml after 88 hrs by liquid scintillation counting; assay type: functional
[32] = Cytotoxicity against mouse splenocytes assessed as cell viability at 0.3 ug/ml after 88 hrs by MTT assay; assay type: cell-based, Splenocyte; details: read-out: Activity
[33] = Cytotoxicity against mouse splenocytes assessed as cell viability at 2.0 ug/ml after 88 hrs by MTT assay; assay type: cell-based, Splenocyte; details: read-out: Activity
[34] = tested on: Splenocyte; assay: Immunosuppressive activity against mouse splenocytes assessed as [3H]thymidine incorporation at 15.6 ug/ml after 88 hrs by liquid scintillation counting; assay type: functional
[35] = Cytotoxicity against mouse splenocytes assessed as cell viability at 3.9 ug/ml after 88 hrs by MTT assay; assay type: cell-based, Splenocyte; details: read-out: Activity
[36] = Cytotoxicity against mouse splenocytes assessed as cell viability at 0.25 ug/ml after 88 hrs by MTT assay; assay type: cell-based, Splenocyte; details: read-out: Activity
[37] = tested on: Splenocyte; assay: Immunosuppressive activity against mouse splenocytes assessed as [3H]thymidine incorporation at 0.25 ug/ml after 88 hrs by liquid scintillation counting; assay type: functional

SMILES	viability at 88 h, 1 ug/ml [1]	Activity [2]	viability at 88 h, 7.8 ug/ml [3]	Activity [5]	Activity [6]	viability at 88 h, 15.6 ug/ml [8]	Activity [11]	Activity [12]	viability at 88 h, 0.5 ug/ml [15]	Activity [18]	Activity [19]	Activity [22]	viability at 88 h, 250 ug/ml [24]	Activity [25]	viability at 88 h, 500 ug/ml [26]	viability at 88 h, 31.3 ug/ml [27]	viability at 88 h, 62.5 ug/ml [28]	viability at 88 h, 125 ug/ml [30]	Activity [31]	viability at 88 h, 2 ug/ml [33]	other results
O=C(O)c1cc(Br)c(Br)[nH]1	95%	31%	99%	100%	100%	66%	59%	100%	113%	13%	40%	0%	0%	100%	10%	27%	27%	12%	100%	99%	Activity [4]: 99%; Activity [7]: 29%; Activity [9]: 83%; Activity [10]: 50%; Activity [13]: 70%; Activity [14]: 83%; Activity [16]: 64%; Activity [17]: 43%; Activity [20]: 83%; Activity [21]: 83%; Activity [23]: 84%; Activity [29]: 39%; viability at 88 h, 0.3 ug/ml [32]: 100%; Activity [34]: 100%; viability at 88 h, 3.9 ug/ml [35]: 80%
CC(C)CCC[C@@H](C)[C@H]1CC[C@H]2C3=C(CC[C@]12C)[C@@]1(C)CC[C@H](O)[C@@H](C)[C@@H]1CC3	97%	100%	80%	100%	100%	92%	100%	100%	118%	81%	100%	46%	10%	100%	6%	85%	72%	28%	100%	77%	viability at 88 h, 0.25 ug/ml [36]: 104%; Activity [37]: 0%; Activity [34]: 100%; viability at 88 h, 3.9 ug/ml [35]: 99%
